Measured values: patent US20250049953A1, “TREATMENT AND METHOD FOR INHIBITING LATE NA CURRENT” (THE TRUSTEES OF COLUMBIA UNIVERSITY IN THE CITY OF NEW YORK, priority 2022, published 2025)
No end group written: not given here.

Legend:
NaV1.5 IQ/AA mutant = molecular target: T1, NaV1.5 IQ/AA mutant (Homo sapiens, UniProt Q14524, I1908A/Q1909A); assay: Multichannel recordings of late Na current, NaV1.5 IQ/AA mutant in HEK293 cells; format: cell-based; conditions: for change in INa,L: co-expression with NaV1.5 IQ/AA in HEK293 cells
T1 construct: expressed in transfected cells; host or cells: HEK293 (ATCC CRL1573)
Description: The human NaV1.5 channel corresponds to clone M77235.1 (GenBank) and is subcloned into pGW 1 vector with HindIII and SaII. To facilitate construction of channelopathic mutations in the channel carboxy-terminus, we introduced silent mutations into NaV1.5 to introduce an NruI cutting site near the channel carboxy-terminus (5329-gtggccacg-5337 into 5329-gtCgcGacg-5337). Subsequently, we used overlap-extension PCR and ligated the PCR product into NaV1.5/pGW1 using NruI and XbaI restriction sites (mutations: E1784K, S1904L, IQ/AA, and Q1909R). For generating the ΔKPQ and IFM/IQM mutations, we used overlap-extension PCR and ligated in NaV1.5/pGW1 following restriction digest using KpnI and XbaI site. For generation of NaV1.5 truncations, we PCR amplified relevant segments using a forward primer upstream of the KpnI site and a reverse primer that truncated at the appropriate location (Δ1810 and Δ1885) and included an XbaI site and ligated into NaV1.5/pW1 vector. For LILA/WICW mutations, we used overlap extension and used restriction site AgeI and NheI for subsequent ligation. All segments subjected to PCR amplification were verified by sequencing. For generating human FHF2 splice-variants, we synthesized gene fragments and ligated into pcDNA3 using BamHI/EcoRI restriction sites. Human FHF1A and FHF1B were subcloned into ECFP-N3 vector, FHF2 splice variants and FHF3 were subcloned into pcDNA3. Truncations of the FHF1A amino-terminus (NT) were generated as fusion proteins with Venus fluorescent protein in the carboxy-terminus by encoding the relevant segments as noted in FIG. 12A in the forward PCR primer and the fluorophore as the template. Following PCR amplification, each fragment was ligated into pcDNA3 following restriction digest using NheI and XhoI enzymes. Plasmid encoding PKA catalytic subunit was constructed from pDONR222-PRKACA as described previously.
HEK293 cells (ATCC CRL1573) were cultured on glass coverslips in 60-mm dishes and transfected using the Ca^2+-phosphate method as previously described. For electrophysiology experiments, we co-transfected 4-8 μg of cDNA encoding the desired channel variant with 4 μg of YFP, and 1 μg of simian virus 40 T-antigen. For experiments evaluating effect of FHF, we transfected the relevant FHF variant at 1:1 ratio as the α-subunit. For experiments considering competition between FHF1/2 isoforms, we co-transfected FHF1B and FHF2S variants at specified ratios (ranging from 1:1 to 1:10). The culture media was replaced following 4 h of transfection. Electrophysiology recordings were then performed at room temperature 1-2 days following transfection.
Multichannel records were obtained in the on-cell configuration with either HEK293 cells or in aMVM as in our previous study. The pipette contained (in mM): 140 NaCl; 10 HEPES; 0.5 CaCl2; at 300 mOsm, adjusted with tetraethylammonium methanesulfonate; and pH 7.4 adjusted with tetraethylammonium hydroxide. To zero membrane potential, the bath contained (in mM): 132 K^+-glutamate; 5 KCl; 5 NaCl; 3 MgCl; 2 EGTA; 10 glucose; 20HEPES; at 300 mOsm adjusted with glucose; and pH 7.4 adjusted with NaOH. Data were acquired at room temperature using the integrating mode of an Axopatch 200A amplifier (Axon Instruments, Molecular Devices). Patch pipettes (3-10 MΩ) were pulled from ultra-thick-walled borosilicate glass (BF200-116-10; Sutter Instruments) using horizontal puller (P-97, Sutter Instruments), fire polished with a microforge (Narishige), and coated with Sylgard™ brand silicone elastomer (Dow Corning). Elementary currents were low-pass filtered at 2 kHz with a four-pole Bessel filter and digitized at 200 kHz with an ITC-18 unit (Instrutech), controlled by custom MATLAB software (Mathworks). For each pulse, we obtained P/8 leak pulses. Leak subtraction was performed using an automated algorithm which fit the kinetics of the leak current or the capacitive transient with convex optimization with L1 regularization. […]

[1] = system: ischemia induced arrhythmias; conditions: rats; cited from earlier work
late Na current = conditions: cited from earlier work
[2] = system: aMVM from non-transgenic mice; assay: Multichannel recordings of INa,L in cultured aMVM from non-transgenic mice; format: cell-based, mouse; conditions: 5 μM Forskolin following shRNA-mediated silencing of FHF2
Description: As such, we sought to determine whether “protective” FHF variants may inhibit phosphorylation-dependent INa,L. To maximally upregulate INa,L, we co-expressed wild-type NaV1.5 with either (1) the catalytic Cα subunit of protein kinase A (PKA) or (2) a constitutively-active Ca^2+/CaM dependent kinase II (CaMKIIT286D) mutant in HEK293 cells. This maneuver likely triggers runaway phosphorylation of NaV1.5 and thereby furnishes a baseline to discern any potential FHF-dependent change. As expected, we observed an ˜5 fold increase in INa,L in the presence of the PKA Cα subunit (FIGS. 3D and 3E), and a 3-fold increase with CaMKIIT286D (FIGS. 3E and 11B). […] Encouraged by these findings, we dissected the functional role of this modulation in native cardiomyocytes (FIGS. 3F and 3G).
Multichannel records were obtained in the on-cell configuration with either HEK293 cells or in aMVM as in our previous study. The pipette contained (in mM): 140 NaCl; 10 HEPES; 0.5 CaCl2; at 300 mOsm, adjusted with tetraethylammonium methanesulfonate; and pH 7.4 adjusted with tetraethylammonium hydroxide. […]
Mice ventricular myocytes were isolated by enzymatic digestion using a Langendorff perfusion apparatus as previously described. […] The efficacy of viral transduction was assessed 24-48 hours post infection.

[3] = in vivo; cited from earlier work
neuronal Na channels = conditions: cited from earlier work
[4] = acute animal toxicity tests; cited from earlier work
[5] = molecular target: T2, NaV1.5 S1904L mutant channel (Homo sapiens, UniProt Q14524, S1904L); assay: Multichannel recordings of late Na current, NaV1.5 S1904L; format: cell-based
T2 construct: expressed in transfected cells; host or cells: HEK293 (ATCC CRL1573)
Description: HEK293 cells (ATCC CRL1573) were cultured on glass coverslips in 60-mm dishes and transfected using the Ca^2+-phosphate method as previously described. For electrophysiology experiments, we co-transfected 4-8 μg of cDNA encoding the desired channel variant with 4 μg of YFP, and 1 μg of simian virus 40 T-antigen. […] The culture media was replaced following 4 h of transfection. Electrophysiology recordings were then performed at room temperature 1-2 days following transfection.

[6] = system: Ca^2+ channels and K^+ channels; conditions: cited from earlier work
[7] = molecular target: NaV1.5 LILA/WICW mutant (human) (UniProt Q14524); assay: cell-based or functional assay
[8] = molecular target: NaV1.5 IFM/IQM mutant (human) (UniProt Q14524); assay: cell-based or functional assay
[9] = molecular target: NaV1.5 IQ/AA mutant (human) (UniProt Q14524); assay: cell-based or functional assay
[10] = incubation with 10 μM ranolazine

1-18: FHF1A amino-terminal truncation peptide, residues 1-18, Venus fusion (MAAAIASSLIRQKRQARE; also: Venus fusion, end not given here; UniProt P61328 1-18, looked up, fragment)
change in INa,L (NaV1.5 IQ/AA mutant): increase late channel openings

9-32: FHF1A amino-terminal truncation peptide, residues 9-32, Venus fusion (LIRQKRQARESNSDRVSASKRRSS; also: Venus fusion, end not given here; UniProt P61328 9-32, looked up, fragment)
change in INa,L (NaV1.5 IQ/AA mutant): increase late channel openings

12-17: FHF1A amino-terminal truncation peptide, residues 12-17, Venus fusion (QKRQAR; also: Venus fusion, end not given here; UniProt P61328 12-17, looked up, fragment)
change in INa,L (NaV1.5 IQ/AA mutant): increase late channel openings

18-39: FHF1A amino-terminal truncation peptide, residues 18-39, Venus fusion (ESNSDRVSASKRRSSPSKDGRS; also: Venus fusion, end not given here; UniProt P61328 18-39, looked up, fragment)
change in INa,L (NaV1.5 IQ/AA mutant): increase late channel openings

COc1ccccc1SC[C@@H](C)CN[C@@H]1COc2ccccc2SC1 [F15845]
effect on ischemia induced arrhythmias [1]: prevented ischemia induced arrhythmias
potency/efficacy for blocking late Na current (late Na current): very high efficacy

C=C[C@@]1(C)CC(=O)[C@]2(O)[C@@]3(C)[C@@H](O)CCC(C)(C)[C@@H]3[C@H](O)[C@H](OC(C)=O)[C@@]2(C)O1 [Forskolin]
increase in INa,L [2]: 20 fold

FC(F)(F)Oc1ccc(-c2ccc3nnc(C(F)(F)F)n3c2)cc1 [GS-458967]
brain penetration [3]: high brain penetration
block of neuronal Na channels (neuronal Na channels): use-dependent block
potency/efficacy for blocking late Na current (late Na current): high efficacy

Cc1noc(Cn2nc3ccc(-c4ccc(OC(F)(F)F)cc4)cn3c2=O)n1 [GS-462808]
liver findings [4]: caused liver lesions

COc1ccccc1OCC(O)CN1CCN(CC(=O)Nc2c(C)cccc2C)CC1 (stereo not drawn) [ranolazine]
reduction in INa,L (NaV1.5 IQ/AA mutant; [10]): 3 fold
inhibition of INa,L (NaV1.5 IQ/AA mutant; ranolazine, FIG. 13G): modest inhibition
reduction in INa,L [5, 10]: 3 fold
inhibition of INa,L ([5]; ranolazine, FIG. 13I): inhibits INa,L
interactions with other ionic currents [6]: non-selectivity interactions with other ionic currents
potency/efficacy for blocking late Na current (late Na current): suboptimal potency

FHF1A (human fibroblast growth factor homologous factor 1, splice variant A) (from UniProt P61328 1-243)
time constant of the excess inactivation (single-exponential decay) [7]: 12.3 ms
time constant of the excess inactivation (single-exponential decay) [8]: 17.8 ms

FHF1B (human) (from UniProt P61328 1-181)
INa,L (Rpersist), multichannel recordings in HEK293 cells [9]: 4 fold
INa,L, multichannel recordings in HEK293 cells [9]: 3 fold
Rpersist against the ratio of FHF1B to FHF2S cDNA (ρ), half-maximal effect (ratio of FHF1B to FHF2S cDNA) [9]: 0.4

FixR (FHF-inhibiting-X-region), FHF1A amino-terminal residues 1-39, expressed as a Venus fusion (peptide)
fold reduction in INa,L (FIG. 5C) [9]: 10 to 15 fold

B1: FHF1A amino terminus: entire FHF1A amino terminus expressed as a peptide (peptide)
peptide: MAAAIASSLIRQKRQARESNSDRVSASKRRSSPSKDGRSLCERHVLGVFSKVRFCSGRKRPVRRRP
modifications: left off: large carriers
notes: entire FHF1A amino terminus expressed as a peptide
change in INa,L (NaV1.5 IQ/AA mutant): strongly inhibited
